Like-named read-outs stand apart in the source and are kept apart here.
Experiments:
[1] = test system: human cervical carcinoma cell line (HeLa); test: MTT cytotoxic assay, HeLa; assay type: cell-based; conditions: MTT, 48 h exposure, read-out: IC50 HeLa
Procedure: (§1) The in vitro antiproliferative activity of DAA derivatives (1–5, 6a–k, 7a–k) were evaluated by MTT assay against human hepatocarcinoma cell line (SMMC-7721), human breast cancer cell line (MDA-MB-231), human cervical carcinoma cell line (HeLa), mouse colon cancer cell line (CT-26) and human normal hepatocyte cell line (QSG-7701). Nocodazole was co-assayed as the positive control and DMEM culture medium containing 0.1% DMSO was used as negative control. The results of the tested compounds expressed as IC50 values (concentration required to inhibit tumor cell proliferation by 50%) were presented in Table 1.
(§2) The human hepatocarcinoma cell line (SMMC-7721), human breast cancer cell line (MDA-MB-231), human cervical carcinoma cell line (HeLa), mouse colon cancer cell line (CT-26) and human normal hepatocyte cells (QSG-7701) used in this study were all obtained from Keygene Biotech., China. These cell lines were maintained in DMEM medium supplemented with 10% heat-inactivated fetal bovine serum in a humidified atmosphere of 5% CO2 at 37 °C.
(§3) The in vitro cytotoxic activities of the benzimidazole derivatives of dehydroabietic acid were evaluated against tested cell lines via the MTT colorimetric method. Briefly, different tumor cells were grown in DMEM medium supplemented with 10% fetal bovine serum, penicillin (100 U mL^−1), and streptomycin (50 μg mL^−1). Cells were harvested at log phase of growth and seeded in 96-well plates (100 μL per well at a density of 2 × 10^5 cells mL^−1). After 24 h incubation at 37 °C and 5% CO2 to allow cell attachment, cultures were exposed to various concentrations of the isolated compounds for 48 h. Finally, MTT solution (2.5 mg mL^−1 in PBS) was added (40 μL per well). Plates were further incubated for 4 h at 37 °C, and the formazan crystals formed were dissolved by adding 150 μL per well of DMSO. Absorption at 570 nm was measured with an ELISA plate reader. The results were expressed as IC50 values with standard deviations, which was defined as the concentration at which 50% survival of cells was discerned. Nocodazole was co-assayed as positive control.

[2] = test system: human breast cancer cell line (MDA-MB-231); test: MTT cytotoxic assay, MDA-MB-231; assay type: cell-based; conditions: MDA-MB-231, MTT, 48 h exposure, read-out: IC50 MDA-MB-231
Procedure: as §1, §2, §3

[3] = test system: human normal hepatocyte cell line (QSG-7701); test: MTT cytotoxic assay, QSG-7701; assay type: cell-based; conditions: QSG7701, 48 h exposure
Procedure: as §1, §2, §3

[4] = test system: mouse colon cancer cell line (CT-26); test: MTT cytotoxic assay, CT-26; assay type: cell-based; conditions: MTT, 48 h exposure, read-out: IC50 CT-26
Procedure: as §1, §2, §3

[5] = test system: human hepatocarcinoma cell line (SMMC-7721); test: MTT cytotoxic assay, SMMC-7721; assay type: cell-based; conditions: MTT, 48 h exposure, read-out: IC50 SMMC-7721
Procedure: as §1, §2, §3

Porcine brain tubulin = biological target: T1, Porcine brain tubulin (Sus scrofa, UniProt P02550+P02554); test: In vitro tubulin polymerization inhibition assay (OD340); assay type: biochemical; conditions: 10 μM, 37 °C, 1 h, versus blank control
T1 construct: purchased Cytoskeleton, Inc. BK004P; host or cells: porcine brain tissue
T1 sequence (P02554 whole entry): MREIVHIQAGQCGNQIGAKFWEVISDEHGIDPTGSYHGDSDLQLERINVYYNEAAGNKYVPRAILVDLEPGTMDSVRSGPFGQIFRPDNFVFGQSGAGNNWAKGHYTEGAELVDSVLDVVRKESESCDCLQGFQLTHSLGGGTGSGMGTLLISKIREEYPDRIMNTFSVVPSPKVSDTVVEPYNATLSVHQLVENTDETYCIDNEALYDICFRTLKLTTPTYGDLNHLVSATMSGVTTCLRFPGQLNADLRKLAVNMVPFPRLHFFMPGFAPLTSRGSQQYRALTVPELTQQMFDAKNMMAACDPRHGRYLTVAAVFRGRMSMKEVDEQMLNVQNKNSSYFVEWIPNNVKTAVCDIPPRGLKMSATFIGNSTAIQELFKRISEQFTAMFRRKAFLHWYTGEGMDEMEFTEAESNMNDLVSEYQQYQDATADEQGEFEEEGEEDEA
T1 sequence (P02550 whole entry): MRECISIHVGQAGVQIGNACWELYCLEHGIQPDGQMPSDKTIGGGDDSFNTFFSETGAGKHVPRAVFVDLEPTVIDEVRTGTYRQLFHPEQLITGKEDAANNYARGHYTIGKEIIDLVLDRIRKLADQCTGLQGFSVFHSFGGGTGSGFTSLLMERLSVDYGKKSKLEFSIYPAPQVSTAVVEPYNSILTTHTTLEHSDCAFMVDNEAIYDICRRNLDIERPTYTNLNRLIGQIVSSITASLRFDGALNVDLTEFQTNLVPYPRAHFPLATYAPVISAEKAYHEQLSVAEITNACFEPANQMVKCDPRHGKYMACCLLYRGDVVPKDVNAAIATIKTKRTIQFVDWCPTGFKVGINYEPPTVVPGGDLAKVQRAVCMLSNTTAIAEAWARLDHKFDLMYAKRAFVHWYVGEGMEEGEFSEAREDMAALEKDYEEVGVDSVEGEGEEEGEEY
Procedure: The in vitro tubulin polymerization inhibition assay was carried out by using the Tubulin Polymerization Assay Kit (Cytoskeleton, Inc., USA) according to the protocol in the manual. Porcine brain tubulin was incubated with compound 6j at concentrations of 5 and 10 μM. The positive control colchicine and negative control taxol were co-assayed at the concentration of 10 μM, and G-PEM buffer was used as the blank control.
The tubulin polymerization assay was accomplished using a commercial assay kit (cat. #BK004P) purchased from Cytoskeleton, Inc. (Danvers, MA, USA). Tubulin isolated from porcine brain tissue was used in this tubulin polymerization assay kit. Tubulin polymerizations are followed by an increase in optical density at 340 nm (OD340) over a 60 min period at 37 °C due to the light scattered by microtubule polymer. At first, tubulin (4 mg) was disovled in 1 mL of G-PEM buffer containing 80 mM piperazine-N,N′-bis(2-ethanesulfonic acid) sequisodium salt (PIPES, pH 6.9), 2.0 mM MgCl2, 0.5 mM EGTA and 1 mM GTP to prepare tubulin solution. Subsequently, 10 μL of 10 × stock solutions of the tested compounds at different concentrations were added to a prewarmed 96-well plate and incubated at 37 °C for 2 min, then 90 μL of tubulin solution was also added into each well to initiate the reaction. The optical intensity (OD340) of each well was recorded every 60 s for 60 min (Cytation 3 Cell Imaging Multi-Mode Reader, BioTek Instruments, Inc., USA). Colchicine and taxol were co-assayed as the positive control and negative control, respectively. G-PEM buffer was used as the blank control.

Structure (SMILES)	IC50 [1]	IC50 [2]	IC50 [3]	melting point	IC50 ([4]; Mus musculus, CT26, 48 h)	IC50 ([5]; Homo sapiens, SMMC-7721, 48 h)	IC50 [5]	IC50 [4]	effect on tubulin polymerization speed and final absorbance (OD340) (Porcine brain tubulin)
COC(=O)[C@]1(C)CCC[C@]2(C)c3cc(-c4cc(OC)c(OC)c(OC)c4)c4nc(-c5ccccc5)[nH]c4c3CCC12 (some centres unmarked) [Compound 7a, Methyl 2′-phenyl-12-(3,4,5-trimethoxyphenyl)-13,14-imidazolyl-deisopropyl-dehydroabietate]	13.1 ± 1.7 µM	> 50 µM	> 50 µM	153 to 155 °C	8.25 ± 0.5 µM	9.38 ± 1.02 µM			
COC(=O)[C@]1(C)CCC[C@]2(C)c3cc(-c4cc(OC)c(OC)c(OC)c4)c4nc(-c5ccc(F)cc5)[nH]c4c3CCC12 (some centres unmarked) [Compound 7c, Methyl 2′-(4-fluorophenyl)-12-(3,4,5-trimethoxyphenyl)-13,14-imidazolyl-deisopropyl-dehydroabietate]	7.63 ± 1.03 µM	0.69 ± 0.21 µM	36.1 ± 2.32 µM	139 to 141 °C	8.95 ± 0.17 µM	< 5 µM	3.29 ± 0.13 µM		
COC(=O)[C@]1(C)CCC[C@]2(C)c3cc(-c4cc(OC)c(OC)c(OC)c4)c4nc(-c5cccc(F)c5)[nH]c4c3CCC12 (some centres unmarked) [Compound 7d, Methyl 2′-(3-fluorophenyl)-12-(3,4,5-trimethoxyphenyl)-13,14-imidazolyl-deisopropyl-dehydroabietate]	12.9 ± 1.26 µM	6.42 ± 0.04 µM	> 50 µM	156 to 158 °C	< 5 µM	> 50 µM		2.7 ± 0.12 µM	
COC(=O)[C@]1(C)CCC[C@]2(C)c3cc(-c4cc(OC)c(OC)c(OC)c4)c4nc(-c5ccc(Cl)cc5)[nH]c4c3CCC12 (some centres unmarked) [Compound 7f, Methyl 2′-(4-chlorophenyl)-12-(3,4,5-trimethoxyphenyl)-13,14-imidazolyl-deisopropyl-dehydroabietate]	17.2 ± 2.32 µM	10.1 ± 1.38 µM	> 50 µM	168 to 170 °C	< 5 µM	11 ± 2.68 µM		3.44 ± 0.75 µM	
COC(=O)[C@]1(C)CCC[C@]2(C)c3cc(-c4cc(OC)c(OC)c(OC)c4)c4nc(-c5ccc(Br)cc5)[nH]c4c3CCC12 (some centres unmarked) [Compound 7h, Methyl 2′-(4-bromophenyl)-12-(3,4,5-trimethoxyphenyl)-13,14-imidazolyl-deisopropyl-dehydroabietate]	29.9 ± 3.07 µM	8.84 ± 1.08 µM	> 50 µM	150 to 152 °C	< 5 µM	> 50 µM		2.76 ± 0.26 µM	
CC(=O)O[C@H]1C(=O)[C@@]2(C)[C@H]([C@H](OC(=O)c3ccccc3)[C@]3(O)C[C@H](OC(=O)[C@H](O)[C@@H](NC(=O)c4ccccc4)c4ccccc4)C(C)=C1C3(C)C)[C@]1(OC(C)=O)CO[C@@H]1C[C@@H]2O [taxol, reference compound]									obviously increased the speed of tubulin polymerization and the final absorbance

From publication PMC9080489, “Synthesis and biological evaluation of 2-aryl-benzimidazole derivatives of dehydroabietic acid as novel tubulin polymerization inhibitors” (RSC Advances, 2018)
